Experimental data reported in article PMC11240139, “Exploring the antitumor potential of novel quinoline derivatives via tubulin polymerization inhibition in breast cancer; design, synthesis and molecular docking” (RSC Advances, 2024).

Experiments:
Assay in all cases: NCI-60 SRB cytotoxicity screen
Type in all cases: cell-based
[1] = test system: HCT-116 (colon cancer); conditions: Homo sapiens; HCT-116, single dose 10 μM; read-out: growth inhibition (GI%)
[2] = test system: NCI-H460 (non-small cell lung cancer); conditions: Homo sapiens; NCI-H460, single dose 10 μM; read-out: growth inhibition (GI%)
[3] = test system: SNB-75 (CNS cancer); conditions: Homo sapiens, SNB-75, SNB-75, single dose 10 μM; read-out: growth inhibition (GI%)
[4] = test system: HS 578T (breast cancer); conditions: Homo sapiens, single dose 10 μM, read-out: growth inhibition (GI%)
[5] = test system: CAKI-1 (renal cancer); conditions: Homo sapiens; CAKI-1, single dose 10 μM; read-out: growth inhibition (GI%)
[6] = test system: OVCAR-8 (ovarian cancer); conditions: Homo sapiens; OVCAR-8, single dose 10 μM; read-out: growth inhibition (GI%)
[7] = test system: NCI-H23 (non-small cell lung cancer); conditions: Homo sapiens; NCI-H23, single dose 10 μM; read-out: growth inhibition (GI%)
[8] = test system: TK-10 (renal cancer); conditions: Homo sapiens; TK-10, single dose 10 μM; read-out: growth inhibition (GI%)
[9] = test system: RPMI-8226 (leukemia); conditions: Homo sapiens; RPMI-8226, single dose 10 μM; read-out: growth inhibition (GI%)
[10] = test system: NCI-H322M (non-small cell lung cancer); conditions: Homo sapiens, single dose 10 μM, read-out: growth inhibition (GI%)
[11] = test system: SK-MEL-5 (melanoma); conditions: Homo sapiens; SK-MEL-5, single dose 10 μM; read-out: growth inhibition (GI%)
[12] = test system: U251 (CNS cancer); conditions: Homo sapiens, U-251; U251, single dose 10 μM; read-out: growth inhibition (GI%)
[13] = test system: HL-60(TB) (leukemia); conditions: Homo sapiens, single dose 10 μM, read-out: growth inhibition (GI%)
[14] = test system: HOP-92 (non-small cell lung cancer); conditions: Homo sapiens; HOP-92, single dose 10 μM; read-out: growth inhibition (GI%)
[15] = test system: ACHN (renal cancer); conditions: Homo sapiens, single dose 10 μM, read-out: growth inhibition (GI%)
[16] = test system: PC-3 (prostate cancer); conditions: PC-3, single dose 10 μM; read-out: growth inhibition (GI%)
[17] = test system: COLO 205 (colon cancer); conditions: Homo sapiens; COLO 205, single dose 10 μM; read-out: growth inhibition (GI%)
[18] = test system: K-562 (leukemia); conditions: Homo sapiens; K-652 [sic], single dose 10 μM; read-out: growth inhibition (GI%)
[19] = test system: A498 (renal cancer); conditions: Homo sapiens; A498, single dose 10 μM; read-out: growth inhibition (GI%)
[20] = test system: UACC-62 (melanoma); conditions: Homo sapiens; UACC-62, single dose 10 μM; read-out: growth inhibition (GI%)
[21] = test system: DU-145 (prostate cancer); conditions: Homo sapiens; DU-145, single dose 10 μM; read-out: growth inhibition (GI%)
[22] = test system: NCI-H522 (non-small cell lung cancer); conditions: Homo sapiens; NCI-H522, single dose 10 μM; read-out: growth inhibition (GI%)
[23] = test system: HOP-62 (non-small cell lung cancer); conditions: Homo sapiens; HOP-62, single dose 10 μM; read-out: growth inhibition (GI%)
[24] = test system: NCI-H226 (non-small cell lung cancer); conditions: Homo sapiens; NCI-H226, single dose 10 μM; read-out: growth inhibition (GI%)
[25] = test system: A549/ATCC (non-small cell lung cancer); conditions: Homo sapiens, single dose 10 μM, read-out: growth inhibition (GI%)
[26] = test system: SN12C (renal cancer); conditions: Homo sapiens, single dose 10 μM, read-out: growth inhibition (GI%)
[27] = test system: UO-31 (renal cancer); conditions: Homo sapiens; UO-31, single dose 10 μM; read-out: growth inhibition (GI%)
[28] = test system: M14 (melanoma); conditions: Homo sapiens; M14, single dose 10 μM; read-out: growth inhibition (GI%)
[29] = test system: 786-0 (renal cancer); conditions: Homo sapiens; 786-0, single dose 10 μM; read-out: growth inhibition (GI%)
[30] = test system: MDA-MB-435 (melanoma); conditions: Homo sapiens, MDA-MB-435, read-out: growth inhibition (GI%);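 also: growth inhibition in percent at a single 10 µM dose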
[31] = test system: KM12 (colon cancer); conditions: Homo sapiens; KM12, single dose 10 μM; read-out: growth inhibition (GI%)
[32] = test system: SK-MEL-2 (melanoma); conditions: Homo sapiens; SK-MEL-2, single dose 10 μM; read-out: growth inhibition (GI%)
[33] = test system: SK-MEL-28 (melanoma); conditions: Homo sapiens; SK-MEL-28, single dose 10 μM; read-out: growth inhibition (GI%)
[34] = test system: HCC-2998 (colon cancer); conditions: Homo sapiens; HCC-2998, single dose 10 μM; read-out: growth inhibition (GI%)
[35] = test system: LOX IMVI (melanoma); conditions: Homo sapiens, single dose 10 μM, read-out: growth inhibition (GI%)

| SMILES | inhibition at 10 µM [1] [%] | inhibition at 10 µM [2] [%] | inhibition at 10 µM [3] [%] | inhibition at 10 µM [4] [%] | inhibition at 10 µM [5] [%] | inhibition at 10 µM [6] [%] | inhibition at 10 µM [7] [%] | inhibition at 10 µM [8] [%] | inhibition at 10 µM [9] [%] | inhibition at 10 µM [10] [%] | inhibition at 10 µM [11] [%] | inhibition at 10 µM [12] [%] | inhibition at 10 µM [13] [%] | inhibition at 10 µM [14] [%] | inhibition at 10 µM [15] [%] | inhibition at 10 µM [16] [%] | inhibition at 10 µM [17] [%] | inhibition at 10 µM [18] [%] | inhibition at 10 µM [19] [%] | inhibition at 10 µM [20] [%] | further results |
| --- | --- | --- | --- | --- | --- | --- | --- | --- | --- | --- | --- | --- | --- | --- | --- | --- | --- | --- | --- | --- | --- |
| CCc1cccc2cc(-c3cc(-c4ccc(Br)cc4)[nH]c(=O)c3C#N)c(Cl)nc12 [Compound 4e, 6-(4-Bromophenyl)-4-(2-chloro-8-ethylquinolin-3-yl)-2-oxo-1,2-dihydropyridine-3-carbonitrile] | < 10 | < 10 | < 10 | < 10 | 17.6 | < 10 | < 10 | < 10 | < 10 | < 10 | 13 | < 10 | < 10 | < 10 | < 10 | < 10 | < 10 | 33.5 | < 10 | < 10 | inhibition at 10 µM [21]: < 10%; inhibition at 10 µM [22]: < 10%; inhibition at 10 µM [23]: < 10%; inhibition at 10 µM [24]: < 10%; inhibition at 10 µM [25]: < 10%; inhibition at 10 µM [26]: < 10%; inhibition at 10 µM [27]: 17.8%; inhibition at 10 µM [28]: < 10%; inhibition at 10 µM [29]: < 10%; inhibition at 10 µM [30]: < 10%; inhibition at 10 µM [31]: < 10%; inhibition at 10 µM [32]: < 10%; inhibition at 10 µM [33]: < 10%; inhibition at 10 µM [34]: < 10%; inhibition at 10 µM [35]: < 10% |
| CCc1cccc2cc(-c3cc(-c4ccc(Br)cc4)[nH]c(=S)c3C#N)c(Cl)nc12 [Compound 5e, 6-(4-Bromophenyl)-4-(2-chloro-8-ethylquinolin-3-yl)-2-thioxo-1,2-dihydropyridine-3-carbonitrile] | < 10 | < 10 | 19.8 | < 10 | 20.1 | < 10 | < 10 | < 10 | 14.7 | < 10 | < 10 | < 10 | < 10 | < 10 | < 10 | < 10 | < 10 | < 10 | < 10 | < 10 | inhibition at 10 µM [21]: < 10%; inhibition at 10 µM [22]: < 10%; inhibition at 10 µM [23]: < 10%; inhibition at 10 µM [24]: < 10%; inhibition at 10 µM [25]: < 10%; inhibition at 10 µM [26]: < 10%; inhibition at 10 µM [27]: 24.1%; inhibition at 10 µM [28]: 11%; inhibition at 10 µM [29]: < 10%; inhibition at 10 µM [30]: < 10%; inhibition at 10 µM [31]: < 10%; inhibition at 10 µM [32]: < 10%; inhibition at 10 µM [33]: < 10%; inhibition at 10 µM [34]: < 10%; inhibition at 10 µM [35]: < 10% |
| CCc1cccc2cc(C3C=C(c4ccc(OC)cc4)NC(=S)N3)c(Cl)nc12 (centres unmarked) [Compound 6a, 4-(2-Chloro-8-ethylquinolin-3-yl)-6-(4-methoxyphenyl)-3,4-dihydropyrimidine-2(1H)-thione] | < 10 | < 10 | 14.9 | < 10 | 16.2 | < 10 | < 10 | < 10 | < 10 | < 10 | < 10 | < 10 | < 10 | < 10 | < 10 | < 10 | < 10 | < 10 | < 10 | 10.4 | inhibition at 10 µM [21]: < 10%; inhibition at 10 µM [22]: < 10%; inhibition at 10 µM [23]: < 10%; inhibition at 10 µM [24]: < 10%; inhibition at 10 µM [25]: < 10%; inhibition at 10 µM [26]: < 10%; inhibition at 10 µM [27]: 18.6%; inhibition at 10 µM [28]: 13.2%; inhibition at 10 µM [29]: < 10%; inhibition at 10 µM [30]: < 10%; inhibition at 10 µM [31]: < 10%; inhibition at 10 µM [32]: < 10%; inhibition at 10 µM [33]: < 10%; inhibition at 10 µM [34]: < 10%; inhibition at 10 µM [35]: < 10% |
| CCc1cccc2cc(C3C=C(c4ccc(Br)cc4)NC(=S)N3)c(Cl)nc12 (centres unmarked) [Compound 6e, 6-(4-Bromophenyl)-4-(2-chloro-8-ethylquinolin-3-yl)-3,4-dihydropyrimidine-2(1H)-thione] | 10.5 | < 10 | < 10 | < 10 | 10.4 | < 10 | < 10 | < 10 | 10.7 | < 10 | < 10 | < 10 | < 10 | < 10 | < 10 | < 10 | < 10 | < 10 | < 10 | < 10 | inhibition at 10 µM [21]: < 10%; inhibition at 10 µM [22]: < 10%; inhibition at 10 µM [23]: < 10%; inhibition at 10 µM [24]: < 10%; inhibition at 10 µM [25]: < 10%; inhibition at 10 µM [26]: < 10%; inhibition at 10 µM [27]: 32.7%; inhibition at 10 µM [28]: < 10%; inhibition at 10 µM [29]: < 10%; inhibition at 10 µM [30]: < 10%; inhibition at 10 µM [31]: < 10%; inhibition at 10 µM [32]: < 10%; inhibition at 10 µM [33]: < 10%; inhibition at 10 µM [34]: < 10%; inhibition at 10 µM [35]: < 10% |
